± gives the expanded uncertainty stated by the source.
Settings: Liquid, Closed cell (Static) method

**Q.** Which “vapor or sublimation pressure” value (258.15 K) does the source give for `CC(F)F` [1,1-difluoroethane] here?
**A.** 148.6 ± 1 kPa

**Q.** What about the “vapor or sublimation pressure” value (268.15 K) of the same compound?
**A.** 219.4 ± 1.1 kPa

**Q.** And the “vapor or sublimation pressure” value (278.15 K)?
**A.** 314.1 ± 1.1 kPa

**Q.** And the “vapor or sublimation pressure” value (288.15 K)?
**A.** 437.8 ± 1.2 kPa

From the NIST ThermoML archive (doi:10.1016/j.jct.2012.03.022)
